The record followed here is PubChem BioAssay (NCI).

Some test systems named below: UO-31 renal; SF-295 CNS; COLO 205 colon; SK-MEL-5 melanoma; U251 CNS; KM12 colon; EKVX NSCLC; HL-60(TB) leukemia; TK-10 renal; SF-268 CNS.
Holding throughout (experiment): DTP human tumour cell line panel, 48 h

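Method: 48-hour compound exposure of cells in 96-well plates, five concentrations, linear interpolation of endpoints. GI50 marks 50% less growth. TGI: concentration producing complete growth inhibition.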

Consider `Nc1nncs1`, for which the TGI in the test with UO-31 renal was above 5000 µM; in the test with SF-295 CNS it was above 5000 µM; with COLO 205 colon, above 3840 µM; in the test with SK-MEL-5 melanoma, above 5000 µM; in the test on U251 CNS, above 5000 µM; with KM12 colon, above 5000 µM. Further, the TGI in the test with EKVX NSCLC, in the test on HL-60(TB) leukemia, in the test with TK-10 renal and with SF-268 CNS was above 5000 µM throughout.
Turning to `O=C(O)C(Br)Cc1ccc2c(c1)OCO2` (stereo unspecified), the TGI with UO-31 renal, with SF-295 CNS, with COLO 205 colon, in the test with SK-MEL-5 melanoma, in the test with U251 CNS and in the test with KM12 colon was above 100 µM each time. In addition, the TGI with EKVX NSCLC, with HL-60(TB) leukemia and in the test on SF-268 CNS was above 100 µM in each case.
With `COc1cc2c3c(n(C4CCNCC4)c(=O)c2cc1OC)-c1cc2c(cc1C3=O)OCO2`, the GI50 was 0.986 µM with COLO 205 colon; 0.322 µM in the test on SK-MEL-5 melanoma; 0.279 µM in the test with U251 CNS; 1.11 µM in the test with KM12 colon; 0.364 µM in the test with HL-60(TB) leukemia; 1.8 µM in the test with TK-10 renal. The TGI stood at 2.33 µM with COLO 205 colon; 1.46 µM with SK-MEL-5 melanoma; 2.01 µM in the test with U251 CNS; 2.53 µM in the test with KM12 colon; 1.49 µM in the test with HL-60(TB) leukemia; 3.65 µM in the test on TK-10 renal.
With `COc1ccc(/C=C/[N+](=O)[O-])cc1`, the TGI was 41.3 µM in the test on UO-31 renal; 7.7 µM with SF-295 CNS; above 100 µM with COLO 205 colon; 30.2 µM in the test on SK-MEL-5 melanoma; 19.1 µM in the test with U251 CNS; 12 µM with KM12 colon. Moreover, the TGI with EKVX NSCLC was found to be 41 µM; with HL-60(TB) leukemia it was 8.82 µM; with TK-10 renal, 27 µM; in the test on SF-268 CNS, 8.11 µM.
With `NC(=O)c1cc(C2OC(CO)C(O)C2O)nn1-c1ccc([N+](=O)[O-])cc1` (stereo unspecified), the TGI with UO-31 renal, in the test with SF-295 CNS, with COLO 205 colon, in the test on SK-MEL-5 melanoma, with U251 CNS and in the test with KM12 colon was above 100 µM each time. Besides, the total growth inhibition concentration (TGI) in the test with EKVX NSCLC, in the test on HL-60(TB) leukemia, in the test with TK-10 renal and in the test on SF-268 CNS was above 100 µM in each case.
Turning to `CC1(C)N=C(N)N=C(N)N1c1cccc(OCc2cccc([N+](=O)[O-])c2)c1`, the TGI in the test with UO-31 renal is above 100 µM; in the test on SF-295 CNS, above 100 µM; with COLO 205 colon, above 100 µM; in the test with SK-MEL-5 melanoma it was above 88.7 µM; in the test on U251 CNS, 98.9 µM; in the test with KM12 colon it was above 100 µM. For the same compound, the TGI is above 100 µM in the test with EKVX NSCLC, 58.2 µM in the test on HL-60(TB) leukemia, above 81.8 µM in the test with TK-10 renal and above 100 µM with SF-268 CNS.
Regarding `O=C(O)CNCc1c2ccccc2[n+]([O-])c2ccccc12`, the TGI in the test on UO-31 renal is 91.7 µM; with SF-295 CNS it was above 100 µM; in the test with COLO 205 colon, above 100 µM; with SK-MEL-5 melanoma it was above 100 µM; in the test with U251 CNS, above 100 µM; in the test on KM12 colon, above 100 µM. Further, the TGI was above 100 µM with EKVX NSCLC, 91.1 µM with HL-60(TB) leukemia, above 100 µM in the test with TK-10 renal and above 100 µM with SF-268 CNS.
Take `S=C1NN=C2C(=C3CCCC4C5CCCCC5N2C34)N1` (stereo unspecified): the TGI in the test on UO-31 renal, in the test with SF-295 CNS, in the test with COLO 205 colon, in the test on SK-MEL-5 melanoma, in the test with KM12 colon and in the test on HL-60(TB) leukemia was above 100 µM each time. The TGI in the test on TK-10 renal and in the test on SF-268 CNS was above 100 µM in each case.
As to `O=C1c2ccccc2C(=O)c2c(O)c(O)cc(O)c21`, the TGI is 49.2 µM in the test with UO-31 renal; above 100 µM with SF-295 CNS; above 100 µM in the test with COLO 205 colon; above 100 µM in the test with SK-MEL-5 melanoma; above 100 µM in the test with U251 CNS; above 100 µM with KM12 colon. The TGI in the test with EKVX NSCLC was above 100 µM; in the test with HL-60(TB) leukemia, 56.5 µM; with TK-10 renal it was above 100 µM; in the test with SF-268 CNS, above 100 µM.
Take `O=C(O)Cc1[nH]cnc1C(=O)O`: the TGI in the test with UO-31 renal, in the test on SF-295 CNS, with COLO 205 colon, with SK-MEL-5 melanoma, with U251 CNS and with KM12 colon was above 100 µM throughout. The TGI with EKVX NSCLC, in the test with HL-60(TB) leukemia, in the test on TK-10 renal and in the test with SF-268 CNS was above 100 µM each time.
As to `COC1/C=C\OC2(C)Oc3c(C)c(O)c4c(O)c(c(CN(C)C)c(O)c4c3C2=O)NC(=O)/C(C)=C\C=C/C(C)C(O)C(C)C(O)C(C)C(OC(C)=O)C1C` (stereo unspecified), the TGI in the test with UO-31 renal is above 100 µM; in the test on SF-295 CNS it was above 100 µM; with COLO 205 colon, 35.4 µM; in the test with SK-MEL-5 melanoma, 36.8 µM; in the test on U251 CNS, 42.6 µM; in the test with KM12 colon, 99.6 µM. The TGI in the test on EKVX NSCLC was 61.4 µM; in the test on HL-60(TB) leukemia, 50.8 µM; in the test with TK-10 renal, above 100 µM; in the test on SF-268 CNS, above 100 µM.
For `COc1ccc(/C(Cl)=C(\C=O)c2ccc(Cl)c(Cl)c2)cc1OC`, the total growth inhibition concentration (TGI) with UO-31 renal came to 20.7 µM; with SF-295 CNS it was 15.9 µM; in the test with COLO 205 colon, 33.7 µM; in the test on SK-MEL-5 melanoma it was 26.6 µM; in the test on U251 CNS, 15 µM; with EKVX NSCLC, 30.6 µM. In addition, the values for the TGI with HL-60(TB) leukemia, in the test on TK-10 renal and in the test on SF-268 CNS were 6.67 µM, 51.4 µM and 18.5 µM, respectively.
Turning to `CCCCCCCCCCCCCCCCOCCCOP(=O)(O)C1CCCN(O)C1=O` (stereo unspecified), the GI50 in the test with UO-31 renal is 2.77 µM; with SF-295 CNS it was 2.44 µM; in the test with COLO 205 colon, 0.548 µM; in the test on SK-MEL-5 melanoma it was 3.74 µM; in the test with U251 CNS, 0.489 µM; in the test with KM12 colon it was 0.572 µM. Further, the GI50 was 3.6 µM in the test on EKVX NSCLC, 1.31 µM in the test with HL-60(TB) leukemia, 0.738 µM with TK-10 renal and 1.81 µM in the test with SF-268 CNS. The TGI in the test with UO-31 renal stood at 13.7 µM; in the test with SF-295 CNS, 11.3 µM; in the test with COLO 205 colon, 13.3 µM; with SK-MEL-5 melanoma it was 14.7 µM; with U251 CNS, 15.3 µM; in the test with KM12 colon it was 11.3 µM. Further, the TGI is 16.3 µM in the test on EKVX NSCLC, 10.3 µM in the test with HL-60(TB) leukemia, 23.4 µM with TK-10 renal and 11.7 µM in the test with SF-268 CNS.
As for `COC(=O)c1nc2c3c(cccc3c1C(=O)OC)Nc1ccccc1-2`, the TGI with UO-31 renal was above 100 µM; with SF-295 CNS, above 100 µM; in the test on COLO 205 colon it was above 100 µM; with SK-MEL-5 melanoma it was 56.5 µM; in the test with U251 CNS it was above 100 µM; in the test with KM12 colon, above 100 µM. In addition, the TGI in the test on EKVX NSCLC, with HL-60(TB) leukemia, in the test with TK-10 renal and in the test on SF-268 CNS was above 100 µM in each case.
In the case of `COc1cc2c3c(c4cc(OC)c(OC)cc4c2cc1OC)[C@H](O)[C@@H]1CCCN1C3`, the TGI came out at 1.64 µM in the test on SF-295 CNS; 0.154 µM in the test on COLO 205 colon; 1.11 µM in the test on SK-MEL-5 melanoma; 2.5 µM in the test with U251 CNS; 1.52 µM with KM12 colon; 0.938 µM with EKVX NSCLC. The concentration for total growth inhibition (TGI) was determined as 3.49 µM with HL-60(TB) leukemia and 1.55 µM in the test on TK-10 renal.
